Read-outs that look alike come from different tables or passages of the source. Numbered stars: 1 amine (or outer) side, 2 acyl side, 3 side chain; on linkers, the order of the positions; unused ones are H or OH. Bridge positions count the residues as written; N and C are the ends. Square brackets hold non-standard residues; d marks the D form. Side chains are listed from the residue outwards. Peptide text beside a SMILES is read from it. * marks the point of attachment. C18 diacid = O=C(O)CCCCCCCCCCCCCCCCC(=O)*; γGlu = O=C(O)[C@H](CCC(=O)[*:2])N[*:1]; Fumaryl(OMe) = COC(=O)/C=C/C(=O)*; Suc = O=C(CCC(=O)[*:2])[*:1]; Orn = NCCC[C@H](N)C(=O)O; Dab = NCC[C@H](N)C(=O)O; AEEA = NCCOCCOCC(=O)O
Molecular target: T1, human ETA receptor (Homo sapiens, UniProt P25101)
T1 construct: expressed in transfected cells; host or cells: 293T-17 cells, transient transfection
T1 sequence (P25101 21-427): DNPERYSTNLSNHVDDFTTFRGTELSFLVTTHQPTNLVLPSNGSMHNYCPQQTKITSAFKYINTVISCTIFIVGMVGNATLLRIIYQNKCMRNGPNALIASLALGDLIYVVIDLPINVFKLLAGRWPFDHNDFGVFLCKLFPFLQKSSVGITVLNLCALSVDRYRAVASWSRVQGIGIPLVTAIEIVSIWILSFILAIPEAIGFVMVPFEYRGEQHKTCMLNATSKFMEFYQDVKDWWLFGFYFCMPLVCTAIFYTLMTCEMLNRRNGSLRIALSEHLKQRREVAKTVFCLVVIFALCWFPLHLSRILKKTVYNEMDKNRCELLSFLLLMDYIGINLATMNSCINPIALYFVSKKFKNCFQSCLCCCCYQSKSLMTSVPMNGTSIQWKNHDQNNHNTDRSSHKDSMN
Experiment: Selectivity of polypeptides on human ETA receptor (IP-One Gq kit, % of positive control ET1)
Format: cell-based
Conditions: read-out: hETAR agonist activity, percentage of activity relative to ET1
Procedure: 293T-17 cells were seeded at a density of 650,000 cells per well in a 6-well plate and cultured overnight in an incubator at 37°C and 5% CO2. Afterward, the cells were transfected with an expression vector, PCDNA3.1-hETA which contained a human ETA receptor gene, at a plasmid concentration of 2.5 µg per well. The cells were further cultured for 48 hours, and green fluorescence expression was observed under a fluorescence microscope. The cells were then digested with trypsin and counted. The activity of compounds on the human ETA receptor was determined with the IP-One Gq kit from Cisbio Bioassays. The cells were suspended in Stim Buffer provided in the kit and the cell suspension was added to a 96-well detection plate at 7 µL cell suspension (containing 30,000 cells) per well. The polypeptides to be screened for activity (prepared according to the Preparation Example of the invention) and polypeptide human endothelin ET1 as positive control were dissolved in Stim B to be at a concentration of 2×, and 7 µL was added to the test cells, while 7 µL of PBS solution was added to the cells in the negative control wells. Human endothelin ET1 (ET1: […] (C1-C15,C3-C11)) set forth in SEQ ID No. 85 was used as the positive control polypeptide. The plate was sealed and incubated at 37°C for 1 h in a cell culture incubator. Detection wells, positive control wells, and PBS control wells were each added with 3 µL of IP1 d2 working solution and 3 µL of IP1 Tb cryptotate Antibody working solution. The plate was sealed and incubated in the dark at room temperature (25°C±5°C) for 1 h. The plate seal was removed, and the […] at 665 nm and 620 nm was measured with an ID5 microplate reader. The ratio of the acceptor emission signal to the donor emission signal, i.e., the value of (signal at 665 nm/signal at 620 nm)×10^4, was calculated for each well. With F3 representing the average value of values of signal at 665 nm/signal at 620 nm determined for the test sample at a specific concentration, F5 representing the average value of values of signal at 665 nm/signal at 620 nm determined for the positive control human endothelin ET1 at the same concentration, and T3 representing the average value of values of signal at 665 nm/signal at 620 nm determined for the PBS negative control, the percentage of activity of the test polypeptide sample relative to the positive control sample ET1 = (F3-T3)×100/(F5-T3) (see Table 6). hETA sequence (NCBI accession number L06622.1).

Structure (SMILES): CC[C@H](C)[C@H](NC(=O)[C@H](CC(=O)O)NC(=O)[C@H](CC(C)C)NC(=O)[C@H](Cc1c[nH]cn1)NC(=O)[C@H](C)NC(=O)[C@H](Cc1ccccc1)NC(=O)[C@H](Cc1ccc(O)cc1)NC(=O)[C@H](CCCCN)NC(=O)[C@H](C)NC(=O)[C@H](CCC(=O)O)NC(=O)[C@H](CCC(=O)O)NC(=O)[C@H](CC(=O)O)NC(=O)CCC(=O)O)C(=O)N[C@H](C(=O)N[C@@H](Cc1c[nH]c2ccccc12)C(=O)O)[C@@H](C)CC [BX-43] (Suc-DEEAKYFAHLDIIW-OH)
- activation at 1 µM: 13.5%
- activation at 10 µM (@10µM): 17%

Structure (SMILES): CC[C@H](C)[C@H](NC(=O)[C@H](CC(=O)O)NC(=O)[C@H](CCCCN)NC(=O)[C@H](Cc1c[nH]cn1)NC(=O)[C@H](C)NC(=O)[C@H](Cc1ccccc1)NC(=O)[C@H](Cc1ccc(O)cc1)NC(=O)[C@@H](NC(=O)[C@H](CCC(=O)O)NC(=O)[C@H](CCC(=O)O)NC(=O)[C@H](CCC(=O)O)NC(=O)[C@H](CC(=O)O)NC(=O)CCC(=O)O)C(C)C)C(=O)N[C@H](C(=O)N[C@@H](Cc1c[nH]c2ccccc12)C(=O)O)[C@@H](C)CC [BX-45] (Suc-DEEEVYFAHKDIIW-OH)
- activation at 1 µM: 14.7%

Structure (SMILES): CC[C@H](C)[C@H](NC(=O)[C@H](CC(=O)O)NC(=O)[C@H](CC(C)C)NC(=O)[C@H](Cc1c[nH]cn1)NC(=O)[C@H](C)NC(=O)[C@H](Cc1ccccc1)NC(=O)[C@H](Cc1ccc(O)cc1)NC(=O)[C@@H]1CCNC(=O)CC[C@H](NC(=O)[C@H](CC(=O)O)NC(=O)CCC(=O)O)C(=O)N[C@@H](CCC(=O)O)C(=O)N[C@@H](C)C(=O)N1)C(=O)N[C@H](C(=O)N[C@@H](Cc1c[nH]c2ccccc12)C(=O)O)[C@@H](C)CC [BX-49] (Suc-DEEA[Dab]YFAHLDIIW-OH; lactam 2-5)
- activation at 0.01 µM (@10nM): -20.9%
- activation at 0.1 µM (@100nM): -15.4%

Structure (SMILES): CC[C@H](C)[C@H](NC(=O)[C@H](CC(=O)O)NC(=O)[C@@H]1CCCCNC(=O)CC[C@H](NC(=O)[C@H](CCC(=O)O)NC(=O)[C@H](CCC(=O)O)NC(=O)[C@H](CC(=O)O)NC(=O)CCC(=O)O)C(=O)N[C@@H](C(C)C)C(=O)N[C@@H](Cc2ccc(O)cc2)C(=O)N[C@@H](Cc2ccccc2)C(=O)N[C@@H](C)C(=O)N[C@@H](Cc2c[nH]cn2)C(=O)N1)C(=O)N[C@H](C(=O)N[C@@H](Cc1c[nH]c2ccccc12)C(=O)O)[C@@H](C)CC [BX-50, Suc-DEE cyclo(EVYFAHK)DIIW] (Suc-DEEEVYFAHKDIIW-OH; lactam 4-10)
- activation at 0.01 µM: 10.1%
- activation at 0.1 µM: -6.92%

Structure (SMILES): CC[C@H](C)[C@H](NC(=O)[C@H](CC(=O)O)NC(=O)[C@H](CCCN)NC(=O)[C@H](Cc1c[nH]cn1)NC(=O)[C@H](C)NC(=O)[C@H](Cc1ccccc1)NC(=O)[C@H](Cc1ccc(O)cc1)NC(=O)[C@@H](NC(=O)[C@H](CCC(=O)O)NC(=O)[C@H](CCC(=O)O)NC(=O)[C@H](CCC(=O)O)NC(=O)[C@H](CC(=O)O)NC(=O)CCC(=O)O)C(C)C)C(=O)N[C@H](C(=O)N[C@@H](Cc1c[nH]c2ccccc12)C(=O)O)[C@@H](C)CC [BX-53, Suc-DEEEVYFAHOrnDIIW] (Suc-DEEEVYFAH[Orn]DIIW-OH)
- activation at 0.01 µM: -17.6%
- activation at 0.1 µM: -17%

Structure (SMILES): CC[C@H](C)[C@H](NC(=O)[C@H](CC(=O)O)NC(=O)[C@H](CCCCNC(=O)COCCOCCNC(=O)COCCOCCNC(=O)CC[C@H](NC(=O)CCCCCCCCCCCCCCCCC(=O)O)C(=O)O)NC(=O)[C@H](Cc1c[nH]cn1)NC(=O)[C@H](C)NC(=O)[C@H](Cc1ccccc1)NC(=O)[C@H](Cc1ccc(O)cc1)NC(=O)[C@@H](NC(=O)[C@H](CCC(=O)O)NC(=O)[C@H](CCC(=O)O)NC(=O)[C@H](CCC(=O)O)NC(=O)[C@H](CC(=O)O)NC(=O)CCC(=O)O)C(C)C)C(=O)N[C@H](C(=O)N[C@@H](Cc1c[nH]c2ccccc12)C(=O)O)[C@@H](C)CC [BX-54] (Suc-DEEEVYFAHK([AEEA-AEEA-γGlu-C18 diacid])DIIW-OH)
- activation at 10 µM (@10µM): -18.5%
- activation at 100 µM (@100µM): -8.66%

Structure (SMILES): CC[C@H](C)[C@H](NC(=O)[C@H](CC(=O)O)NC(=O)[C@H](CCCCN)NC(=O)[C@H](Cc1c[nH]cn1)NC(=O)[C@H](C)NC(=O)[C@H](Cc1ccccc1)NC(=O)[C@H](Cc1ccc(O)cc1)NC(=O)[C@@H](NC(=O)[C@H](CCC(=O)O)NC(=O)[C@H](CCC(=O)O)NC(=O)[C@H](CCC(=O)O)NC(=O)[C@H](CC(=O)O)NC(=O)/C=C/C(=O)OC)C(C)C)C(=O)N[C@H](C(=O)N[C@@H](Cc1c[nH]c2ccccc12)C(=O)O)[C@@H](C)CC [BX-58] ({Fumaryl(OMe)}-DEEEVYFAHKDIIW-OH)
- activation at 10 µM (@10µM): -5.95%
- activation at 100 µM (@100µM): -2.01%

Structure (SMILES): CC[C@H](C)[C@H](NC(=O)[C@H](CC(=O)O)NC(=O)[C@H](CCCCNC(=O)CC[C@H](NC(=O)COCCOCCNC(=O)COCCOCCNC(=O)CCCCCCCCCCCCCCCCC(=O)O)C(=O)O)NC(=O)[C@H](Cc1c[nH]cn1)NC(=O)[C@H](C)NC(=O)[C@H](Cc1ccccc1)NC(=O)[C@H](Cc1ccc(O)cc1)NC(=O)[C@@H](NC(=O)[C@H](C)NC(=O)[C@H](CCC(=O)O)NC(=O)[C@H](CCC(=O)O)NC(=O)[C@H](CC(=O)O)NC(=O)CCC(=O)O)C(C)C)C(=O)N[C@H](C(=O)N[C@@H](Cc1c[nH]c2ccccc12)C(=O)O)[C@@H](C)CC [BX-74] (Suc-DEEAVYFAHK([γGlu-AEEA-AEEA-C18 diacid])DIIW-OH)
- activation at 10 µM: -2.64%
- activation at 100 µM: -13.5%
